Patent US20130324439A1, “Elastic Modulus-modified MicroEnvironment microArrays (eMEArrays) and Uses Thereof” (The Regents of the University of California, priority 2012, published 2013)
“Also recorded” adds a separate entry of the source. One block for each molecule: values may come before it.

Tests used:
HER2 = assay: Phospho-specific intracellular flow cytometry, ratio of pHER2 to total HER2 in HCC1569; format: cell-based; settings: for Modulus-dependent regulation of pHER2/HER2 ratio in treated cells: HCC1569, inhibitor for 24 hours on PA gels of differing compliance
Source text: FIG. 13 is a graph showing by using intracellular flow cytometry to analyze the pHER2 and HER2 expression level of HCC1569, that cells on softer gel have higher pHER2/HER2 ratio and less EdU incorporation, vice versa, and then compared to the drug response. Thus stiffness can alter HER2 regulation and drug response. pHER2/HER2 ratios are altered in a modulus-dependent manner. (blue line) pHER2/HER2 ratios as determined with phosphor specific flow cytometry on HCC1569 cells cultured 4 days on different compliance substrata. (red line) Responses to lapatinib determined by EdU incorporation in HCC1569 as a function of substrate compliance
To better understand why changing the elastic modulus of the culture substrata altered sensitivity to lapatinib on PA gels we used phospho-specific intracellular flow cytometry techniques to measure the ratio of phosphorylated HER2 (pHER2, which is considered activated) to total HER2. Cells were first fixed and stained with an antibody that recognized total HER2 on the cell surface, then the cells were permeabilized and stained for pHER2 prior to multicolor analysis on a flow cytometer.
To determine whether the actinomyosin network is involved in regulating the modulus-dependent regulation of HER2, HCC 1569 were exposed to Blebbistatin or Y27632 for 24 hours on PA gels of differing compliance. […] Thus the actinomyosin network is likely important in modulus-dependent regulation of HER2.

[1] = tested on: HER2+ breast cancer cell line HCC1569; assay: EdU incorporation (DNA synthesis) of HCC1569 on 2D tissue culture plastic, PA gels of tuned elastic modulus or 3D Matrigel; settings: for Effect of actinomyosin network inhibitor on the modulus-dependent lapatinib response: HCC1569 on PA gels, 1 hr w/inhibitors; for Response to lapatinib (EdU incorporation), 3D Matrigel culture versus 2D tissue culture plastic: 4 days growth then 2 days with 1.5 μM Lapatinib; for Effect of inhibitor added with lapatinib on the 3D context-dependent response (EdU incorporation): 3D Matrigel versus 2D TC plastic; for Effect of inhibitor alone on EdU incorporation: TC plastic or 3D Matrigel, without lapatinib
Procedure: (§1) The cells were grown on plastic tissue culture dishes (2D) vs. PA gels, and 3D on top, RPMI1640 with 1% FBS and 5% Matrigel 4 days growth then 2 days with 1.5 μM Lapatinib.
(§2) We sought to determine if HER-2 drug response was different between 2D and 3D culture environment and whether that difference is due to different substrata stiffness. Cells were grown on plastic tissue culture dishes (2D), functionalized polyacrylamide cell culture (PA) gels, and in 3D (Matrigel on top, RPMI1640 with 1% FBS and 5% Matrigel 4 days growth then 2 days with 1.5 μM Lapatinib).
We next sought to determine if the actinomyosin network plays a role in this different drug response. Cells were grown in 2D, on PA gels, and in 3D Matrigel with 2 days growth, 1 hr w/inhibitors, then 2 days with 1.5 μM lapatinib.
To determine whether the 3D Matrigel context response was due only to the physiological modulus, we combined the actinomyosin network inhibitors together with lapatinib and compared the responses of cells in 3D to cells cultured on 2D TC plastic.
We next sought to determine if the concentration of type I collagen affected HER-2 targeted drug response. Referring now to FIG. 14, cells were subjected to non-coated tissue culture dishes, Collagen I coated tissue coated dishes for 2 days growth, then 2 days with 1.5 μM lapatinib.

[2] = tested on: HER2-expressing breast cancer cell lines; settings: cited from earlier work
HCC1569 cells = assay: eMEArray drug response, EdU-pixels/nucleus-pixels of HCC1569 on printed microenvironments on PA gels
HER2- BT549 cells = assay: EdU incorporation of BT549 on 2D plastic, PA gels or 3D Matrigel; format: cell-based; settings: PA gel and 3D, 1.5 μM Lapatinib
Procedure: as §1, §2

[3] = then 2 days with 1.5 μM lapatinib

Structure (SMILES): Cc1ccc2c(c1)C(=O)C1(O)CCN(c3ccccc3)C1=N2 (stereo not shown) [Blebbistatin]
Modulus-dependent regulation of pHER2/HER2 ratio in treated cells (HER2): absent
Effect of actinomyosin network inhibitor on the modulus-dependent lapatinib response [1, 3]: altered

Structure (SMILES): CS(=O)(=O)CCNCc1ccc(-c2ccc3ncnc(Nc4ccc(OCc5cccc(F)c5)c(Cl)c4)c3c2)o1 [Lapatinib]
Ratio of pHER2 to total HER2 as a function of substrate compliance (HER2; HCC1569 on 400 Pa, 2500 Pa, 4470 Pa, 40 KPa gels or TC plastic, 1.5 uM lapatinib for 4 days): higher ratio of pHER2 to total HER2 on more compliant substrata
Responsiveness in 3D Matrigel culture compared to 2D growth [2]: less responsive
Response of cells on eMEArrays with elastic modulus similar to 40 kPa (HCC1569 cells; 40 kPa): sensitive response
Response of cells on 400 kPa eMEArrays (HCC1569 cells; 400 kPa): resistant response
Responses to lapatinib on other molecular microenvironments relative to type 1 collagen alone (HCC1569 cells; HCC1569, 1.5 μM Lapatinib for 24 hours, EdU for the final 4 hours): widely varied responses
Response to lapatinib (EdU incorporation) on PA gels tuned to 400 Pa, compared with 3D Matrigel ([1]; HCC1569, 400 Pa PA gel crosslinked to type 1 collagen, 1.5 uM lapatinib): very similar results compared to 3D cultures; also recorded: phenocopied the response of HCC1569 grown in 3D Matrigel
Response to lapatinib (EdU incorporation), 3D Matrigel culture versus 2D tissue culture plastic ([1]; HCC1569): inhibited more
Response to lapatinib (EdU incorporation), 3D Matrigel culture versus 2D tissue culture plastic ([1]; HCC1569, listed as lapatinib): more sensitive
Influence of type I collagen concentration on lapatinib response (% EdU incorporation) ([1]; non-coated vs Collagen-I coated TC dishes or PA gels, 2 days growth, then 2 days with 1.5 μM lapatinib): does impact lapatinib response on TC dishes, but less so on low modulus gels
Response to lapatinib (EdU incorporation) (HER2- BT549 cells): unaffected
Response to lapatinib (EdU incorporation) (HER2- BT549 cells; listed as lapatinib): did not respond; also recorded: insensitive

Effect of lapatinib and ML-7 together on cells in 3D ([1]; lapatinib and ML-7, 3D Matrigel): no such synergistic effect
Structure (SMILES): O=S(=O)(c1cccc2c(I)cccc12)N1CCCNCC1 [ML-7]
Effect of inhibitor added with lapatinib on the 3D context-dependent response (EdU incorporation) ([1]; HCC1569): eliminated any context-driven differences
Effect of inhibitor alone on EdU incorporation ([1]; HCC1569): did not have any effect
Effect of actinomyosin network inhibitor on the modulus-dependent lapatinib response [1, 3]: altered
Effect of combination with Lapatinib on cells on 2D PA gels ([1]; combination of ML-7 with Lapatinib, 2D PA gels): synergistic response that caused massive cell death

Structure (SMILES): C[C@@H](N)[C@H]1CC[C@H](C(=O)Nc2ccncc2)CC1 [Y27632]
Modulus-dependent regulation of pHER2/HER2 ratio in treated cells (HER2): absent
Effect of inhibitor added with lapatinib on the 3D context-dependent response (EdU incorporation) ([1]; HCC1569): did not alter
Effect of inhibitor alone on EdU incorporation ([1]; HCC1569): did not have any effect
Effect of actinomyosin network inhibitor on the modulus-dependent lapatinib response [1, 3]: altered
